Patent EP0745595A1, “3-(3-Aryloxyphenyl)-1-(substituted methyl)-s-triazine-2,4,6-oxo or thiotrione herbicidal agents” (American Cyanamid Company, priority 1995, dated 1996)

Tests used:
Type in all cases: in vivo
[1] = system: GLYCINE MAX(L) MERR. CV. WILLIAMS; experiment: Preemergence herbicidal evaluation, GLXMAW (Soybean, Williams); details: for GLXMAW herbicidal rating: rated four to five weeks after treatment
Summary of the method: (§1)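 Seeds sown in potting soil cups, then sprayed preemergence with aqueous acetone compound solution at about 0.125 to 0.50 kg per hectare. Greenhouse-grown, rated 4–5 weeks after treatment on a 0–9 visual scale against control.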

[2] = system: CYPERUS SEROTINUS, ROTTB.; experiment: Preemergence weed control under flooded paddy conditions, CYPSE (Flatsedge); details: for Herbicidal effect rating, CYPSE: preemergence, 3-4 weeks after treatment; for CYPSE: pre-weed
Summary of the method: (§2)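 Visual 0-9 rating against untreated control, covering stand, vigor, malformation, size and chlorosis, scored three to four weeks post-treatment in a greenhouse. Application was into 1.5-3 cm flood water over silt loam sown at 0.5 cm. The 50/50 v/v aqueous/acetone doses were about 0.5, 0.25, 0.125 and 0.063 kg/ha.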

[3] = system: GLYCINE MAX(L) MERR. CV. WILLIAMS; experiment: Postemergence herbicidal evaluation, GLXMAW (Soybean, Williams); parameters: key to GLXMAW rating / Herbicidal effect rating, GLXMAW / GLXMAW: 0-9 visual rating scale vs untreated control
Summary of the method: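 Herbicidal injury to Williams soybean was assessed after a postemergence spray of two-week-old seedlings grown in jiffy flats. Compounds were dispersed in an acetone/water (50/50) mixture with 0.5% TWEEN®20 surfactant and applied at 40 psi. After four to five weeks in the greenhouse, stand, vigor, malformation, size and chlorosis were compared against a control on a 0-9 scale, and results from replicate tests were averaged.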

[4] = system: CASSIA OBTUSIFOLIA, L.; experiment: Postemergence herbicidal evaluation, CASOB (Sicklepod); parameters: key to CASOB rating / Herbicidal effect rating, CASOB / CASOB: 0-9 visual rating scale vs untreated control
Summary of the method: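 Each value is a 0–9 visual rating of plant appearance compared with control, recorded 4–5 weeks after a 0.125–0.500 kg/ha spray, with multiple tests averaged.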

[5] = system: CYPERUS IRIA; experiment: Preemergence weed control under flooded paddy conditions, CYPIR (Rice Flatsedge); details: for Herbicidal effect rating, CYPIR: preemergence, 3-4 weeks after treatment; for CYPIR: pre-weed
Summary of the method: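 This preemergence test mimicked flooded paddy conditions: rice flatsedge propagules were sown in the upper 0.5 cm of silt loam in undrained 32 oz. containers (10.5 cm diameter), with water held 1.5 to 3 cm over the soil. After normal greenhouse care, plants were scored 0-9 for stand, vigor, malformation, size, chlorosis and appearance relative to controls.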

[6] = system: ORYZA SATIVA, L. TEBONNET; experiment: Postemergence herbicidal evaluation, ORYSAT (Rice, Tebonnet); parameters: key: 0-9 visual rating scale vs untreated control
Summary of the method: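 This postemergence greenhouse test used Oryza sativa cv. Tebonnet seedlings grown about two weeks in jiffy flats. Test material in 50/50 acetone/water with 0.5% TWEEN®20 surfactant was applied through a spray nozzle at 40 psi. Four to five weeks later, stand, vigor, malformation, size, chlorosis and overall appearance were rated 0-9 relative to a control, and repeat tests were averaged.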

[7] = system: ZEA MAYS L.; experiment: Preemergence herbicidal evaluation, ZEAMX (Corn, Field); details: for ZEAMX herbicidal rating: rated four to five weeks after treatment
Summary of the method: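 Preemergence herbicidal activity on field corn: seeds in potting soil were sown atop roughly one inch of soil in separate pint cups, treated, and grown under standard greenhouse care. Four to five weeks post-treatment, stand, vigor, malformation, size, chlorosis and overall appearance were compared with a control and scored 0-9.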

[8] = system: […], PRESL.; experiment: Preemergence weed control under flooded paddy conditions, MOOVA (Monochoria); details: for Herbicidal effect rating, MOOVA: preemergence, 3-4 weeks after treatment; for MOOVA: pre-weed
Summary of the method: as §2

[9] = system: ECHINOCHLOA CRUS-GALLI, (L) BEAU; experiment: Preemergence herbicidal evaluation, ECHCG (Barnyardgrass); details: for ECHCG herbicidal rating: rated four to five weeks after treatment
Summary of the method: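 In this preemergence herbicide test, cups holding seeds of ECHCG sown in potting soil over roughly one inch of soil were treated and then grown under conventional greenhouse care. Tests were ended four to five weeks after treatment, and injury was scored 0-9 from stand, vigor, malformation, size, chlorosis and overall appearance relative to a control.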

[10] = system: ECHINOCHLOA ORYZOIDES (ARD.)FRITSCH; experiment: Preemergence weed control under flooded paddy conditions, ECHORC (Watergrass (Calif.)); details: for Herbicidal effect rating, ECHORC: preemergence, 3-4 weeks after treatment; for ECHORC: pre-weed
Summary of the method: as §2

[11] = system: SAGITTARIA PYGMAEA, L.; experiment: Preemergence weed control under flooded paddy conditions, SAGPY (Arrowhead (Pygmaea)); details: for Herbicidal effect rating, SAGPY: preemergence, 3-4 weeks after treatment; for SAGPY: pre-weed
Summary of the method: as §2

[12] = system: CASSIA OBTUSIFOLIA, L.; experiment: Preemergence herbicidal evaluation, CASOB (Sicklepod); details: for CASOB herbicidal rating: rated four to five weeks after treatment
Summary of the method: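 Preemergence herbicidal activity against sicklepod was assessed by planting seed mixed with potting soil atop about one inch of soil in pint cups. After treatment the cups were watered and handled per standard greenhouse practice. Tests ended four to five weeks later, with plant stand, vigor, malformation, size, chlorosis and overall appearance scored 0-9 relative to a control.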

[13] = system: GALIUM APARINE; experiment: Preemergence herbicidal evaluation, GALAP (Galium); details: for GALAP herbicidal rating: rated four to five weeks after treatment
Summary of the method: as §1

[14] = system: TRITICUM AESTIVUM, CV. APOLLO; experiment: Preemergence herbicidal evaluation, TRZAWO (Wheat, Winter, CV. APOLLO); details: for TRZAWO herbicidal rating: rated four to five weeks after treatment
Summary of the method: as §1

COC(=O)Cn1c(=O)n(C)c(=O)n(-c2cc(Oc3ccccn3)ccc2[N+](=O)[O-])c1=O [Compound 38, Methyl tetrahydro-3-methyl-5-[2-nitro-5-(2-pyridyloxy)phenyl]-2,4,6-trioxo-s-triazine-1(2H)-acetate]
GLXMAW herbicidal rating ([1]; Rate 0.500 kg/ha): 1.0 | Herbicidal effect rating, CYPSE ([2]; 0.500 kg/ha): 0.0 | GLXMAW rating ([3]; Rate 0.500 kg/ha): 0.5 | CASOB rating ([4]; Rate 0.500 kg/ha): 0.0 | Herbicidal effect rating, CYPIR ([5]; 0.500 kg/ha): 0.0 | ORYSAT rating ([6]; Rate 0.500 kg/ha): 0.0 | ZEAMX herbicidal rating ([7]; Rate 0.500 kg/ha): 2.0 | Herbicidal effect rating, MOOVA ([8]; 0.500 kg/ha): 0.0 | ECHCG herbicidal rating ([9]; Rate 0.500 kg/ha): 0.0 | Herbicidal effect rating, ECHORC ([10]; 0.500 kg/ha): 0.0 | Herbicidal effect rating, SAGPY ([11]; 0.500 kg/ha): 0.0 | CASOB herbicidal rating ([12]; Rate 0.500 kg/ha): 0.0 | GALAP herbicidal rating ([13]; Rate 0.500 kg/ha): 0.0 | TRZAWO herbicidal rating ([14]; Rate 0.500 kg/ha): 1.0

Methyl 3-{2-[(2-chloro-α,α,α,-trifluoro-p-tolyl)oxy]phenyl}tetrahydro-5-methyl-2,4,6-trioxo-s-triazine-1(2H)-acetate [Compound 28]
GLXMAW ([1]; Rate 0.125 kg/ha): 0.0 | GLXMAW herbicidal rating ([1]; Rate 0.125 kg/ha): 0.0 | GLXMAW ([1]; Rate 0.250 kg/ha): 1.0 | GLXMAW herbicidal rating ([1]; Rate 0.250 kg/ha): 1.0 | GLXMAW ([1]; Rate 1.000 kg/ha): 0.0 | Herbicidal effect rating, CYPSE ([2]; 0.063 kg/ha): 0.0 | Herbicidal effect rating, CYPSE ([2]; 0.125 kg/ha): 0.0 | Herbicidal effect rating, CYPSE ([2]; 0.250 kg/ha): 0.0 | Herbicidal effect rating, CYPSE ([2]; 0.500 kg/ha): 0.0 | CYPSE ([2]; Rate 0.250 kg/ha): 0.0 | CYPSE ([2]; Rate 0.500 kg/ha): 0.0 | CYPSE ([2]; Rate 1.000 kg/ha): 0.0 | GLXMAW ([3]; Rate 0.063 kg/ha): 2.5 | GLXMAW ([3]; Rate 0.125 kg/ha): 3.5 | GLXMAW rating ([3]; Rate 0.125 kg/ha): 3.5 | GLXMAW ([3]; Rate 0.250 kg/ha): 4.5 | GLXMAW rating ([3]; Rate 0.250 kg/ha): 4.5 | GLXMAW ([3]; Rate 0.500 kg/ha): 5.0 | GLXMAW rating ([3]; Rate 0.500 kg/ha): 5.0 | CASOB ([4]; Rate 0.063 kg/ha): 3.0 | CASOB ([4]; Rate 0.125 kg/ha): 5.0 | CASOB rating ([4]; Rate 0.125 kg/ha): 5.0 | CASOB ([4]; Rate 0.250 kg/ha): 6.0 | CASOB rating ([4]; Rate 0.250 kg/ha): 6.0 | CASOB ([4]; Rate 0.500 kg/ha): 6.5 | CASOB rating ([4]; Rate 0.500 kg/ha): 6.5 | Herbicidal effect rating, CYPIR ([5]; 0.063 kg/ha): 0.0 | Herbicidal effect rating, CYPIR ([5]; 0.125 kg/ha): 0.0 | Herbicidal effect rating, CYPIR ([5]; 0.250 kg/ha): 0.0 | Herbicidal effect rating, CYPIR ([5]; 0.500 kg/ha): 4.0 | CYPIR ([5]; Rate 0.250 kg/ha): 0.0 | CYPIR ([5]; Rate 0.500 kg/ha): 6.5 | CYPIR ([5]; Rate 1.000 kg/ha): 7.0 | ORYSAT ([6]; Rate 0.063 kg/ha): 1.5 | ORYSAT ([6]; Rate 0.125 kg/ha): 2.0 | ORYSAT rating ([6]; Rate 0.125 kg/ha): 2.0 | ORYSAT ([6]; Rate 0.250 kg/ha): 2.5 | ORYSAT rating ([6]; Rate 0.250 kg/ha): 2.5 | ORYSAT ([6]; Rate 0.500 kg/ha): 3.0 | ORYSAT rating ([6]; Rate 0.500 kg/ha): 3.0 | ZEAMX ([7]; Rate 0.125 kg/ha): 0.0 | ZEAMX herbicidal rating ([7]; Rate 0.125 kg/ha): 0.0 | ZEAMX ([7]; Rate 0.250 kg/ha): 0.0 | ZEAMX herbicidal rating ([7]; Rate 0.250 kg/ha): 0.0 | ZEAMX ([7]; Rate 0.500 kg/ha): 1.0 | ZEAMX herbicidal rating ([7]; Rate 0.500 kg/ha): 1.0 | ZEAMX ([7]; Rate 1.000 kg/ha): 1.0 | Herbicidal effect rating, MOOVA ([8]; 0.063 kg/ha): 0.0 | Herbicidal effect rating, MOOVA ([8]; 0.125 kg/ha): 0.0 | Herbicidal effect rating, MOOVA ([8]; 0.250 kg/ha): 2.0 | Herbicidal effect rating, MOOVA ([8]; 0.500 kg/ha): 9.0 | MOOVA ([8]; Rate 0.250 kg/ha): 2.0 | MOOVA ([8]; Rate 0.500 kg/ha): 9.0 | MOOVA ([8]; Rate 1.000 kg/ha): 9.0 | ECHCG ([9]; Rate 0.125 kg/ha): 0.0 | ECHCG herbicidal rating ([9]; Rate 0.125 kg/ha): 0.0 | ECHCG ([9]; Rate 0.250 kg/ha): 2.0 | ECHCG herbicidal rating ([9]; Rate 0.250 kg/ha): 2.0 | ECHCG ([9]; Rate 0.500 kg/ha): 3.0 | ECHCG herbicidal rating ([9]; Rate 0.500 kg/ha): 3.0 | ECHCG ([9]; Rate 1.000 kg/ha): 6.0 | Herbicidal effect rating, ECHORC ([10]; 0.063 kg/ha): 0.0 | Herbicidal effect rating, ECHORC ([10]; 0.125 kg/ha): 0.0 | Herbicidal effect rating, ECHORC ([10]; 0.250 kg/ha): 2.0 | Herbicidal effect rating, ECHORC ([10]; 0.500 kg/ha): 8.0 | ECHORC ([10]; Rate 0.250 kg/ha): 2.0 | ECHORC ([10]; Rate 0.500 kg/ha): 8.5 | ECHORC ([10]; Rate 1.000 kg/ha): 7.0 | Herbicidal effect rating, SAGPY ([11]; 0.063 kg/ha): 0.0 | Herbicidal effect rating, SAGPY ([11]; 0.125 kg/ha): 0.0 | Herbicidal effect rating, SAGPY ([11]; 0.250 kg/ha): 0.0 | Herbicidal effect rating, SAGPY ([11]; 0.500 kg/ha): 0.0 | SAGPY ([11]; Rate 0.250 kg/ha): 0.0 | SAGPY ([11]; Rate 0.500 kg/ha): 0.0 | SAGPY ([11]; Rate 1.000 kg/ha): 0.0 | CASOB ([12]; Rate 0.125 kg/ha): 0.0 | CASOB herbicidal rating ([12]; Rate 0.125 kg/ha): 0.0 | CASOB ([12]; Rate 0.250 kg/ha): 2.0 | CASOB herbicidal rating ([12]; Rate 0.250 kg/ha): 2.0 | CASOB ([12]; Rate 0.500 kg/ha): 1.5 | CASOB herbicidal rating ([12]; Rate 0.500 kg/ha): 3.0 | CASOB ([12]; Rate 1.000 kg/ha): 3.0 | GALAP ([13]; Rate 0.125 kg/ha): 3.0 | GALAP herbicidal rating ([13]; Rate 0.125 kg/ha): 3.0 | GALAP ([13]; Rate 0.250 kg/ha): 4.0 | GALAP herbicidal rating ([13]; Rate 0.250 kg/ha): 4.0 | GALAP ([13]; Rate 0.500 kg/ha): 5.5 | GALAP herbicidal rating ([13]; Rate 0.500 kg/ha): 6.0 | GALAP ([13]; Rate 1.000 kg/ha): 5.0 | TRZAWO ([14]; Rate 0.125 kg/ha): 0.0 | TRZAWO herbicidal rating ([14]; Rate 0.125 kg/ha): 0.0 | TRZAWO ([14]; Rate 0.250 kg/ha): 0.0 | TRZAWO herbicidal rating ([14]; Rate 0.250 kg/ha): 0.0 | TRZAWO ([14]; Rate 0.500 kg/ha): 1.0 | TRZAWO herbicidal rating ([14]; Rate 0.500 kg/ha): 1.0 | TRZAWO ([14]; Rate 1.000 kg/ha): 1.0
